From PubChem BioAssay (NCI)
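Interpolation was linear, between the two tested concentrations surrounding the appropriate level; five concentrations were tested over 48 hours in 96-well plates. TGI marks complete inhibition of growth.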

Experiments:
Experiment in all cases: inhibition of tumour cell growth, NCI panel, 48 h
NCI-H522 lung = system: NCI-H522 lung
NCI-H226 lung = system: NCI-H226 lung
TK-10 renal = system: TK-10 renal
OVCAR-8 ovarian = system: OVCAR-8 ovarian
MDA-MB-435 = system: MDA-MB-435
HS 578T breast = system: HS 578T breast
U251 CNS = system: U251 CNS
UACC-62 melanoma = system: UACC-62 melanoma
KM12 colon = system: KM12 colon
MALME-3M melanoma = system: MALME-3M melanoma
SF-295 CNS = system: SF-295 CNS
SF-268 CNS = system: SF-268 CNS
NCI-H23 lung = system: NCI-H23 lung
NCI-H460 lung = system: NCI-H460 lung
HCT-15 colon = system: HCT-15 colon
ACHN renal = system: ACHN renal
HOP-62 NSCLC = system: HOP-62 NSCLC
DU-145 prostate = system: DU-145 prostate
EKVX NSCLC = system: EKVX NSCLC
SW-620 colon = system: SW-620 colon
RPMI-8226 leukemia = system: RPMI-8226 leukemia
SN12C renal = system: SN12C renal
M14 melanoma = system: M14 melanoma
SNB-75 CNS = system: SNB-75 CNS
HL-60(TB) leukemia = system: HL-60(TB) leukemia
UACC-257 melanoma = system: UACC-257 melanoma
SK-MEL-28 melanoma = system: SK-MEL-28 melanoma
SK-OV-3 ovarian = system: SK-OV-3 ovarian
SNB-19 CNS = system: SNB-19 CNS
BT-549 breast = system: BT-549 breast
SR leukemia = system: SR leukemia
OVCAR-3 ovarian = system: OVCAR-3 ovarian
HCT-116 colon = system: HCT-116 colon
MCF7 breast = system: MCF7 breast
HOP-92 NSCLC = system: HOP-92 NSCLC
MDA-MB-231 breast = system: MDA-MB-231 breast
HT29 colon = system: HT29 colon
MDA-N = system: MDA-N
CCRF-CEM leukemia = system: CCRF-CEM leukemia
PC-3 prostate = system: PC-3 prostate
COLO 205 colon = system: COLO 205 colon
786-0 renal = system: 786-0 renal
A498 renal = system: A498 renal
CAKI-1 renal = system: CAKI-1 renal
MOLT-4 leukemia = system: MOLT-4 leukemia
IGROV1 ovarian = system: IGROV1 ovarian
A549 NSCLC = system: A549 NSCLC
OVCAR-4 ovarian = system: OVCAR-4 ovarian
HCC-2998 colon = system: HCC-2998 colon
OVCAR-5 ovarian = system: OVCAR-5 ovarian
K-562 leukemia = system: K-562 leukemia
T-47D breast = system: T-47D breast
SK-MEL-2 melanoma = system: SK-MEL-2 melanoma
LOX IMVI melanoma = system: LOX IMVI melanoma
SK-MEL-5 melanoma = system: SK-MEL-5 melanoma
SF-539 CNS = system: SF-539 CNS

Measured: TGI

O=C1OC(c2ccco2)=N/C1=C\c1cccc([N+](=O)[O-])c1
> 100 µM: all assays above
